Source: patent US7772241B2, “Variolin derivatives and their use as antitumor agents” (Pharma Mar S.A., priority 2001, dated 2010)
Like-named read-outs stand apart in the source and are kept apart here.

Key:
[1] = tested on: LNCaP; assay: Inhibition of cells growth by colorimetric (SRB) assay, LNCaP
Method in brief: (§1)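 Read-out is sulforhodamine B protein stain (OD 490 nm) after cold TCA fixation, following 48 h continuous exposure to samples spanning 10 to 10^−8 μg/ml.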

[2] = tested on: A-549; assay: Inhibition of cells growth by colorimetric (SRB) assay, A-549; details: for CC50: read-out: LC50 A-549, SRB assay, 48 hours exposure
Method in brief: as §1

[3] = tested on: IGROV-ET; assay: Inhibition of cells growth by colorimetric (SRB) assay, IGROV-ET; details: for CC50: read-out: LC50 IGROV-ET, SRB assay, 48 hours exposure
Method in brief: as §1

[4] = tested on: SK-OV-3; assay: Inhibition of cells growth by colorimetric (SRB) assay, SK-OV-3; details: for CC50: read-out: LC50 SKOV-3, SRB assay, 48 hours exposure
Method in brief: as §1

[5] = tested on: LoVo; assay: Inhibition of cells growth by colorimetric (SRB) assay, LoVo; details: for CC50: read-out: LC50 LOVO, SRB assay, 48 hours exposure
Method in brief: as §1

[6] = tested on: HT-29; assay: Inhibition of cells growth by colorimetric (SRB) assay, HT-29; details: for GI50 / CC50: Homo sapiens, HT-29, 48 h; for GI50: read-out: GI50 HT-29, SRB assay, 48 hours exposure; for CC50: read-out: LC50 HT-29, SRB assay, 48 hours exposure; for TGI HT-29: SRB assay, 48 hours exposure
Method in brief: as §1

[7] = tested on: IGROV-1; assay: Inhibition of cells growth by colorimetric (SRB) assay, IGROV-1
Method in brief: as §1

[8] = tested on: K-562; assay: Inhibition of cells growth by colorimetric (SRB) assay, K-562; details: for GI50 / CC50: Homo sapiens, K562, 48 h; for GI50: read-out: GI50 K-562, SRB assay, 48 hours exposure; for CC50: read-out: LC50 K-562, SRB assay, 48 hours exposure; for TGI K-562: SRB assay, 48 hours exposure
Method in brief: as §1

[9] = tested on: SK-MEL-28; assay: Inhibition of cells growth by colorimetric (SRB) assay, SK-MEL-28; details: for CC50: read-out: LC50 MEL-28, SRB assay, 48 hours exposure
Method in brief: as §1

[10] = tested on: PANC-1; assay: Inhibition of cells growth by colorimetric (SRB) assay, PANC-1; details: for CC50: read-out: LC50 PANC-1, SRB assay, 48 hours exposure
Method in brief: as §1

[11] = tested on: DU-145; assay: Inhibition of cells growth by colorimetric (SRB) assay, DU-145; details: for CC50: read-out: LC50 DU-145, SRB assay, 48 hours exposure
Method in brief: as §1

[12] = tested on: SK-BR-3; assay: Inhibition of cells growth by colorimetric (SRB) assay, SK-BR-3; details: for CC50: read-out: LC50 SK-BR-3, SRB assay, 48 hours exposure
Text: The finality of these assays is to interrupt the growth of a “in vitro” tumor cell culture by means a continued exhibition of the cells to the sample to be testing.
This form of the assay employs 96 well cell culture microplates of 9 mm diameter (Faircloth, 1988; Mosmann, 1983). Most of the cell lines are obtained from American Type Culture Collection (ATCC) derived from different human cancer types.
Cells are maintained in RPMI 1640 10% FBS, supplemented with 0.1 g/l penicillin and 0.1 g/l streptomycin sulphate and then incubated at 37° C., 5% CO2 and 98% humidity. For the experiments, cells were harvested from subconfluent cultures using trypsin and resuspended in fresh medium before plating.
Cells are seeded in 96 well microtiter plates, at 5×10^3 cells per well in aliquots of 195 μl medium, and they are allowed to attach to the plate surface by growing in drug free medium for 18 hours. Afterward, samples are added in aliquots of 5 μl in a ranging from 10 to 10^−8 μg/ml, dissolved in DMSO/EtOH/PBS (0.5:0.5:99). After 48 hours exposure, the antitumor effect are measured by the SRB methodology: cells are fixed by adding 50 μl of cold 50% (wt/vol) trichloroacetic acid (TCA) and incubating for 60 minutes at 4° C. Plates are washed with deionized water and dried. One hundred μl of SRB solution (0.4% wt/vol in 1% acetic acid) is added to each microtiter well and incubated for 10 minutes at room temperature. Unbound SRB is removed by washing with 1% acetic acid. Plates are air dried and bound stain is solubilized with Tris buffer. Optical densities are read on a automated spectrophotometric plate reader at a single wavelength of 490 nm.
The values for mean +/−SD of data from triplicate wells are calculated. Some parameters for cellular responses can be calculated: GI=growth inhibition, TGI=total growth inhibition (cytostatic effect) and LC=cell killing (cytotoxic effect).

[13] = tested on: LoVo-Dox; assay: Inhibition of cells growth by colorimetric (SRB) assay, LoVo-Dox; details: for GI50 / CC50: Homo sapiens, 48 h; for GI50: read-out: GI50 LOVO-DOX, SRB assay, 48 hours exposure; for CC50: read-out: LC50 LOVO-DOX, SRB assay, 48 hours exposure; for TGI LOVO-DOX: SRB assay, 48 hours exposure
Method in brief: as §1

Row | SMILES | TGI LN-caP ([1]; SRB assay, 48 hours exposure) | CC50 ([2]; Homo sapiens, A549, 48 h) [µM] | TGI A-549 ([2]; SRB assay, 48 hours exposure) | CC50 ([3]; Homo sapiens, 48 h) [µM] | TGI IGROV-ET ([3]; SRB assay, 48 hours exposure) | CC50 ([4]; Homo sapiens, SK-OV-3, 48 h) [µM] | TGI SKOV-3 ([4]; SRB assay, 48 hours exposure) | CC50 ([5]; Homo sapiens, LoVo, 48 h) [µM] | TGI LOVO ([5]; SRB assay, 48 hours exposure) | GI50 [6] [µM] | CC50 [6] [µM] | TGI HT-29 [6] | TGI IGROV ([7]; SRB assay, 48 hours exposure) | GI50 [8] [µM] | CC50 [8] [µM] | TGI K-562 [8] | CC50 ([9]; Homo sapiens, SK-MEL-28, 48 h) [µM] | TGI MEL-28 ([9]; SRB assay, 48 hours exposure) | CC50 ([10]; Homo sapiens, PANC-1, 48 h) [µM] | TGI PANC-1 ([10]; SRB assay, 48 hours exposure) | also measured
1 | Nc1nccc2c(-c3ccncn3)c3c(O)ccnc3n12 [Compound 100] | 3.29E−06 | ≥ 25.5 | 2.63E−06 | 22.9 | 2.33E−06 | ≥ 25.5 | 9.84E−06 | ≥ 25.5 | 5.12E−06 | 14.9 | ≥ 25.5 | 2.55E−05 | 4.69E−06 | 6.78 | ≥ 25.5 | 1.49E−05 | ≥ 25.5 | 8.08E−06 | ≥ 25.5 | 2.55E−05 | GI50 ([1]; read-out: GI50 LN-caP, SRB assay, 48 hours exposure): 1.05 µM; CC50 ([1]; read-out: LC50 LN-caP, SRB assay, 48 hours exposure): 10.9 µM; GI50 ([2]; read-out: GI50 A-549, SRB assay, 48 hours exposure): 0.678 µM; GI50 ([3]; read-out: GI50 IGROV-ET, SRB assay, 48 hours exposure): 0.683 µM; GI50 ([4]; read-out: GI50 SKOV-3, SRB assay, 48 hours exposure): 1.74 µM; GI50 ([5]; read-out: GI50 LOVO, SRB assay, 48 hours exposure): 0.877 µM; GI50 ([7]; read-out: GI50 IGROV, SRB assay, 48 hours exposure): 1.4 µM; CC50 ([7]; read-out: LC50 IGROV, SRB assay, 48 hours exposure): 13.2 µM; GI50 ([9]; read-out: GI50 MEL-28, SRB assay, 48 hours exposure): 1.32 µM; GI50 ([10]; read-out: GI50 PANC-1, SRB assay, 48 hours exposure): 4.92 µM; CC50 ([11]; Homo sapiens, DU-145, 48 h): ≥ 25.5 µM; TGI DU-145 ([11]; SRB assay, 48 hours exposure): 5.25E−06; GI50 ([11]; read-out: GI50 DU-145, SRB assay, 48 hours exposure): 0.739 µM; CC50 ([12]; Homo sapiens, SK-BR-3, 48 h): 10.6 µM; TGI SK-BR-3 ([12]; SRB assay, 48 hours exposure): 1.52E−06; GI50 ([12]; read-out: GI50 SK-BR-3, SRB assay, 48 hours exposure): 0.464 µM; GI50 [13]: 1.18 µM; CC50 [13]: ≥ 25.5 µM; TGI LOVO-DOX [13]: 1.30E−05
2 | COc1nccc(-c2c3c(O)ccnc3n3c(N)nccc23)n1 [Compound 105] | 1.75E−05 | 32.4 | 3.24E−05 | 32.4 | 2.23E−05 | 32.4 | 2.91E−05 | 32.4 | 3.24E−05 | 32.4 | 32.4 | 3.24E−05 | 1.31E−05 | 12.8 | 32.4 | 2.93E−05 | 32.4 | 3.24E−05 | 32.4 | 3.24E−05 | GI50 ([1]; Homo sapiens, LNCaP, 48 h, read-out: GI50 LN-caP, SRB assay, 48 hours exposure): 5.48 µM; CC50 ([1]; Homo sapiens, LNCaP, 48 h, read-out: LC50 LN-caP, SRB assay, 48 hours exposure): 32.4 µM; GI50 ([2]; Homo sapiens, A549, 48 h, read-out: GI50 A-549, SRB assay, 48 hours exposure): 7.49 µM; GI50 ([3]; Homo sapiens, 48 h, read-out: GI50 IGROV-ET, SRB assay, 48 hours exposure): 8.17 µM; GI50 ([4]; Homo sapiens, SK-OV-3, 48 h, read-out: GI50 SKOV-3, SRB assay, 48 hours exposure): 8.14 µM; GI50 ([5]; Homo sapiens, LoVo, 48 h, read-out: GI50 LOVO, SRB assay, 48 hours exposure): 14.3 µM; GI50 ([7]; Homo sapiens, IGROV-1, 48 h, read-out: GI50 IGROV, SRB assay, 48 hours exposure): 6.26 µM; CC50 ([7]; Homo sapiens, IGROV-1, 48 h, read-out: LC50 IGROV, SRB assay, 48 hours exposure): 27.5 µM; GI50 ([9]; Homo sapiens, SK-MEL-28, 48 h, read-out: GI50 MEL-28, SRB assay, 48 hours exposure): 13.8 µM; GI50 ([10]; Homo sapiens, PANC-1, 48 h, read-out: GI50 PANC-1, SRB assay, 48 hours exposure): 11.8 µM; GI50 ([11]; Homo sapiens, DU-145, 48 h, read-out: GI50 DU-145, SRB assay, 48 hours exposure): 14.2 µM; CC50 ([11]; Homo sapiens, DU-145, 48 h): 32.4 µM; TGI DU-145 ([11]; SRB assay, 48 hours exposure): 3.24E−05; GI50 ([12]; Homo sapiens, SK-BR-3, 48 h, read-out: GI50 SK-BR-3, SRB assay, 48 hours exposure): 2.42 µM; CC50 ([12]; Homo sapiens, SK-BR-3, 48 h): 32.4 µM; TGI SK-BR-3 ([12]; SRB assay, 48 hours exposure): 1.26E−05; GI50 [13]: 21.9 µM; CC50 [13]: 32.4 µM; TGI LOVO-DOX [13]: 3.24E−05
